# Tests used:
# [1] = target: Cyclin-dependent kinase 8 (Homo sapiens, UniProt P49336); assay: Selectivity interaction (KinomeScan (DiscoverX)) EUB0000229b CDK8; conditions: at 10 µM
# [2] = target: Proto-oncogene tyrosine-protein kinase Src (Homo sapiens, UniProt P12931); assay: Selectivity interaction (KinomeScan (DiscoverX)) EUB0000229b SRC; conditions: at 10 µM
# [3] = target: Mitogen-activated protein kinase 1 (Homo sapiens, UniProt P28482); assay: Selectivity interaction (Upstate Kinase Profiler service (Millipore)) EUB0000056c MAPK1; conditions: at 1 µM
# [4] = target: T1, Serine/threonine-protein kinase 17B (Homo sapiens) (UniProt O94768); assay: Selectivity interaction (Kinase panel (DSF assay)) EUB0001559a STK17B
# T1 sequence (whole entry): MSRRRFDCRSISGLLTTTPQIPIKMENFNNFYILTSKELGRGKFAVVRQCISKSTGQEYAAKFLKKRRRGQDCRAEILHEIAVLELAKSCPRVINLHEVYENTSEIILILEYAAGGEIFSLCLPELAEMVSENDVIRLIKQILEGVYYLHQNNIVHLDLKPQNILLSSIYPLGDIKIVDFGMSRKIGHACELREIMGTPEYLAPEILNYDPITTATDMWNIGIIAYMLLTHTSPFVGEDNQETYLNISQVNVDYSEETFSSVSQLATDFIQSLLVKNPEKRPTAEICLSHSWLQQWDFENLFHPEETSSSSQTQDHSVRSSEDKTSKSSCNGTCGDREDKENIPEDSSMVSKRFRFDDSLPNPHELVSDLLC
# [5] = Selectivity interaction (KinomeScan (DiscoverX)) EUB0001079a PKNB; conditions: at 1 µM
# [6] = target: ALK tyrosine kinase receptor (Homo sapiens, UniProt Q9UM73); assay: Selectivity interaction (KinomeScan (DiscoverX)) EUB0000666a ALK; conditions: at 10 µM
# [7] = target: Tyrosine-protein kinase Fgr (Homo sapiens) (UniProt P09769); assay: Selectivity interaction (Millipore kinase profiler) EUB0000124b FGR; conditions: at 10 µM
# [8] = target: T2, Mitogen-activated protein kinase kinase kinase 5 (Homo sapiens) (UniProt Q99683); assay: Selectivity interaction (LanthaScreen Eu Kinase Binding Assay) EUB0001632a MAP3K5; conditions: at 10 µM
# T2 sequence (whole entry): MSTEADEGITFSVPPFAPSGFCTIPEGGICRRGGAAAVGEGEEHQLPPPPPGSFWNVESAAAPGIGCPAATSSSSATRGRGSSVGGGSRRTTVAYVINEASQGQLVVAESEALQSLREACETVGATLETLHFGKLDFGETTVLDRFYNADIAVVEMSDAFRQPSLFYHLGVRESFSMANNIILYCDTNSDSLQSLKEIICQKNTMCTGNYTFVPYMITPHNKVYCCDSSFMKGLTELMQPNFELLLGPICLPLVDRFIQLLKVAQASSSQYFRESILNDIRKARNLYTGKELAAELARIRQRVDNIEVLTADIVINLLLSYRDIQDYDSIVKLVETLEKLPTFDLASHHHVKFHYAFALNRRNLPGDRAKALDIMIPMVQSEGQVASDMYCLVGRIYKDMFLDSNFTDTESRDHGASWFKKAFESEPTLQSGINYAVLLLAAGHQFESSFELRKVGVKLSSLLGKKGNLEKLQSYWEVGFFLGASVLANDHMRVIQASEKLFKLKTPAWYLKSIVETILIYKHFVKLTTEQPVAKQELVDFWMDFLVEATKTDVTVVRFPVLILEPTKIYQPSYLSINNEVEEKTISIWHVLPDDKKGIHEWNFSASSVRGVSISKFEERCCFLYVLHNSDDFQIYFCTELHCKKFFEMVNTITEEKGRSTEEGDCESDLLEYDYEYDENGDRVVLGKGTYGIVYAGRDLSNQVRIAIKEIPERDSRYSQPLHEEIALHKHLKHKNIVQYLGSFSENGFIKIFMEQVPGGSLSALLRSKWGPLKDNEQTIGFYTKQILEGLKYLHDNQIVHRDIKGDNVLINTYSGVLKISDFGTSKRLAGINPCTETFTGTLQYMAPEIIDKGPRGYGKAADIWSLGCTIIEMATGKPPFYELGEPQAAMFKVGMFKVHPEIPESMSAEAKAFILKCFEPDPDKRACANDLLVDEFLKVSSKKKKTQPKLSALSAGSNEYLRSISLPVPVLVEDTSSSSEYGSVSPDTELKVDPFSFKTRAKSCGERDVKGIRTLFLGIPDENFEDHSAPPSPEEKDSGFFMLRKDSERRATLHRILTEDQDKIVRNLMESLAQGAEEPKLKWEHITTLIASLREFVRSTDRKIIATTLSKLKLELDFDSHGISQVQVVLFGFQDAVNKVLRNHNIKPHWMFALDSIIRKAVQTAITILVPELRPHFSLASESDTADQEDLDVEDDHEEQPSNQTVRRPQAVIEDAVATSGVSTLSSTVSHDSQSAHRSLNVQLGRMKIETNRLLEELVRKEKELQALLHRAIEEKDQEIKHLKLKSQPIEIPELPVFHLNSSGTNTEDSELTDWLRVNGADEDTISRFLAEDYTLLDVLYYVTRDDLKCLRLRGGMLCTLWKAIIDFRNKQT
# [9] = target: Mitogen-activated protein kinase 3 (Homo sapiens, UniProt P27361); assay: Selectivity interaction (ActivX KiNativ screen (kinase selectivity in THP-1 cell lysates)) EUB0000639a MAPK3; type: subcellular; conditions: lysate
# [10] = target: Cyclin-dependent kinase 14 (Homo sapiens) (UniProt O94921); assay: Selectivity interaction (ActivX KiNativ screen (kinase selectivity in THP-1 cell lysates)) EUB0000639a CDK14; type: subcellular; conditions: lysate, at 0.01 µM
# [11] = target: T3, Phosphorylase b kinase gamma catalytic chain, liver/testis isoform (Homo sapiens) (UniProt P15735); assay: Selectivity interaction (Kinase panel (Invitrogen)) EUB0000639a PHKG2; conditions: at 200 nM
# T3 sequence (whole entry): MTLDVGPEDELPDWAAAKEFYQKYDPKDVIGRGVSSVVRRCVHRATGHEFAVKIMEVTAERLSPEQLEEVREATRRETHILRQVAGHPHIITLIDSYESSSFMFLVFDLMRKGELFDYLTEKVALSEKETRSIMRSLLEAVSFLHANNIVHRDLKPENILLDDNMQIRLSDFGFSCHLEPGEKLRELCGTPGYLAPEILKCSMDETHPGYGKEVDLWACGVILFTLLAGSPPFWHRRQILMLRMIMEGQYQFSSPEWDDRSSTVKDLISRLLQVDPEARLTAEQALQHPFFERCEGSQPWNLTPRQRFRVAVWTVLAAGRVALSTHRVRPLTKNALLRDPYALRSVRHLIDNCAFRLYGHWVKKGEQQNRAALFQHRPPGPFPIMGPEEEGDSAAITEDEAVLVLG
# [12] = target: Insulin receptor-related protein (Homo sapiens) (UniProt P14616); assay: Selectivity interaction (KinomeScan (DiscoverX)) EUB0000618a INSRR; conditions: at 10 µM
# Insulin receptor = Insulin receptor (Homo sapiens, UniProt P06213); assay: Selectivity interaction (Kinase screening (Nanosyn)) EUB0000604a INSR
# Sequence of Insulin receptor (P06213 28-758 limits assumed): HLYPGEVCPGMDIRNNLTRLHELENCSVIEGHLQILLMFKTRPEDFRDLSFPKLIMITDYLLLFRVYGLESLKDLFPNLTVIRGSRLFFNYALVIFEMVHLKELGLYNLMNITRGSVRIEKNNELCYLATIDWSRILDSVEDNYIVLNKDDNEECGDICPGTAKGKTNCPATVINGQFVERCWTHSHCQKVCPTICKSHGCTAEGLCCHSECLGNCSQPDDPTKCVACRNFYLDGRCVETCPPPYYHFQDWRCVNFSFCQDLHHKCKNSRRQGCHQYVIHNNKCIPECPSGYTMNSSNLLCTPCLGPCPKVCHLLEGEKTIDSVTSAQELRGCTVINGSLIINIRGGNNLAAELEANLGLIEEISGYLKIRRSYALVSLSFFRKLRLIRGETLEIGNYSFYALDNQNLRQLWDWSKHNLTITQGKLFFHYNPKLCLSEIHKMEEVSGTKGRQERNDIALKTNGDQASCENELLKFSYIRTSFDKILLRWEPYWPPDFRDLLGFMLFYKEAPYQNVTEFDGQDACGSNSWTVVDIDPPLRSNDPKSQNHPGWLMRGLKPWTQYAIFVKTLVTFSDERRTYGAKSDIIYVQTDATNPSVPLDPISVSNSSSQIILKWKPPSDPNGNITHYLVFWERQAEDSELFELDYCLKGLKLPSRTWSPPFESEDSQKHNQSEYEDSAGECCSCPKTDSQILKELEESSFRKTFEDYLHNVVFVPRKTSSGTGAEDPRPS
# Sequence of Insulin receptor (P06213 763-1382 limits assumed): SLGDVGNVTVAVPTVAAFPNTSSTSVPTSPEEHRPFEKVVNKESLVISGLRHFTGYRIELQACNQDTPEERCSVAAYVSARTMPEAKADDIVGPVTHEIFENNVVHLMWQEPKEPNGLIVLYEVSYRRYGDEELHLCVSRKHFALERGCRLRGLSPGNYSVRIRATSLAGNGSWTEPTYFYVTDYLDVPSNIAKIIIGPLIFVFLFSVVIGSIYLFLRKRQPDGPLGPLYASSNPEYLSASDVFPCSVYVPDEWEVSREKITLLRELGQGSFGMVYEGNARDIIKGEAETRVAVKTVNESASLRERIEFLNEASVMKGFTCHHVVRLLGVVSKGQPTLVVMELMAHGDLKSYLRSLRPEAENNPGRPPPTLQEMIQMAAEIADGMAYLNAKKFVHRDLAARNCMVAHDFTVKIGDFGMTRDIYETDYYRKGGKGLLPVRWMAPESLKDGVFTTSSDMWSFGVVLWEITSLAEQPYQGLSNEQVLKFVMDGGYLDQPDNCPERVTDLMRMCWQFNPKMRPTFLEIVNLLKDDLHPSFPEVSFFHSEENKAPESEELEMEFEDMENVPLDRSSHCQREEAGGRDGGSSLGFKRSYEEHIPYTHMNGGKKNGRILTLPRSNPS
# Sequence of Mitogen-activated protein kinase 3 (P27361 whole entry): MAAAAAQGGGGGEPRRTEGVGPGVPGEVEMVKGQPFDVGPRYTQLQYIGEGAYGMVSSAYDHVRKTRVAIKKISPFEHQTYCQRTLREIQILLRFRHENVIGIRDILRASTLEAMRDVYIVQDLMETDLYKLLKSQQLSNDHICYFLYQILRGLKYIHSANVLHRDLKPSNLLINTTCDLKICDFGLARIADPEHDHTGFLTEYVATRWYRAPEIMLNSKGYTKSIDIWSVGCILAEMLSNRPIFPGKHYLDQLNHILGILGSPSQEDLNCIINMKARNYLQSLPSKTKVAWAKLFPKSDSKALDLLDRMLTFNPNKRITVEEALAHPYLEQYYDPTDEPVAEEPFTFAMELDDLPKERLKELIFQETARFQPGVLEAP
# Sequence of Insulin receptor-related protein (Homo sapiens) (P14616 27-742 limits assumed): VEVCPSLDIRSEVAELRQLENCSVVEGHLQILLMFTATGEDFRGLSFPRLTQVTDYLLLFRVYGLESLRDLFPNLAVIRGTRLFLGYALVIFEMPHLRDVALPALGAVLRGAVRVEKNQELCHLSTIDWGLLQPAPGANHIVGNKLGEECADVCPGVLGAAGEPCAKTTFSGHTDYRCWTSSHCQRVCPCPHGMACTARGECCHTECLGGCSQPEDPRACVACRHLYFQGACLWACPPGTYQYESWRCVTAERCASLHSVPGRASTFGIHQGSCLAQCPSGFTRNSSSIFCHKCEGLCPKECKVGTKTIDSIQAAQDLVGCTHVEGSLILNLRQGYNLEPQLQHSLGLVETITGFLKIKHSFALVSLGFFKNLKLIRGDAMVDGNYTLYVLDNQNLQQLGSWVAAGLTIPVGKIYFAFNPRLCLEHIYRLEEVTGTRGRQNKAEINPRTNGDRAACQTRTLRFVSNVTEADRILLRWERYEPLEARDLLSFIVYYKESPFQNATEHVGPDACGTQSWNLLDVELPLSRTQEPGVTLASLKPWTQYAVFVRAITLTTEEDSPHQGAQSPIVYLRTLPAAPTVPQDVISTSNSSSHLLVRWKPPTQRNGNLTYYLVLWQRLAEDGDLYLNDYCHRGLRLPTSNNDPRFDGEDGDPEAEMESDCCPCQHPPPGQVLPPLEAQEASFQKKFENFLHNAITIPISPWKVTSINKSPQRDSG
# Sequence of Insulin receptor-related protein (Homo sapiens) (P14616 747-1297 limits assumed): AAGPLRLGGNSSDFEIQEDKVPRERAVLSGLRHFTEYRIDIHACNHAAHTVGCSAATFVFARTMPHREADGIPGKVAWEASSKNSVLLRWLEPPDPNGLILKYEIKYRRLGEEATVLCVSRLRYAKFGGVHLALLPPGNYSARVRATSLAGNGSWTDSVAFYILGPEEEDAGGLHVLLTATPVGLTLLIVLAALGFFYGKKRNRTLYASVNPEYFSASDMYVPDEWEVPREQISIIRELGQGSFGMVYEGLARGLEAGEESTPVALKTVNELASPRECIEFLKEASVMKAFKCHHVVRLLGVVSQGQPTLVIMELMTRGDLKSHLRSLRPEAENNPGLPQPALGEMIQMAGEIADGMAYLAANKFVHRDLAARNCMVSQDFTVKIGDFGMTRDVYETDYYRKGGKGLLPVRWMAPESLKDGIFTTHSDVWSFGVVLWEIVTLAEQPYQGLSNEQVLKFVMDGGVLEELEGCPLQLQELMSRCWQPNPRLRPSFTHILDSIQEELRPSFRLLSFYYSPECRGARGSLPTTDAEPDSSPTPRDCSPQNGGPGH
# Sequence of ALK tyrosine kinase receptor (Q9UM73 19-1620 limits assumed): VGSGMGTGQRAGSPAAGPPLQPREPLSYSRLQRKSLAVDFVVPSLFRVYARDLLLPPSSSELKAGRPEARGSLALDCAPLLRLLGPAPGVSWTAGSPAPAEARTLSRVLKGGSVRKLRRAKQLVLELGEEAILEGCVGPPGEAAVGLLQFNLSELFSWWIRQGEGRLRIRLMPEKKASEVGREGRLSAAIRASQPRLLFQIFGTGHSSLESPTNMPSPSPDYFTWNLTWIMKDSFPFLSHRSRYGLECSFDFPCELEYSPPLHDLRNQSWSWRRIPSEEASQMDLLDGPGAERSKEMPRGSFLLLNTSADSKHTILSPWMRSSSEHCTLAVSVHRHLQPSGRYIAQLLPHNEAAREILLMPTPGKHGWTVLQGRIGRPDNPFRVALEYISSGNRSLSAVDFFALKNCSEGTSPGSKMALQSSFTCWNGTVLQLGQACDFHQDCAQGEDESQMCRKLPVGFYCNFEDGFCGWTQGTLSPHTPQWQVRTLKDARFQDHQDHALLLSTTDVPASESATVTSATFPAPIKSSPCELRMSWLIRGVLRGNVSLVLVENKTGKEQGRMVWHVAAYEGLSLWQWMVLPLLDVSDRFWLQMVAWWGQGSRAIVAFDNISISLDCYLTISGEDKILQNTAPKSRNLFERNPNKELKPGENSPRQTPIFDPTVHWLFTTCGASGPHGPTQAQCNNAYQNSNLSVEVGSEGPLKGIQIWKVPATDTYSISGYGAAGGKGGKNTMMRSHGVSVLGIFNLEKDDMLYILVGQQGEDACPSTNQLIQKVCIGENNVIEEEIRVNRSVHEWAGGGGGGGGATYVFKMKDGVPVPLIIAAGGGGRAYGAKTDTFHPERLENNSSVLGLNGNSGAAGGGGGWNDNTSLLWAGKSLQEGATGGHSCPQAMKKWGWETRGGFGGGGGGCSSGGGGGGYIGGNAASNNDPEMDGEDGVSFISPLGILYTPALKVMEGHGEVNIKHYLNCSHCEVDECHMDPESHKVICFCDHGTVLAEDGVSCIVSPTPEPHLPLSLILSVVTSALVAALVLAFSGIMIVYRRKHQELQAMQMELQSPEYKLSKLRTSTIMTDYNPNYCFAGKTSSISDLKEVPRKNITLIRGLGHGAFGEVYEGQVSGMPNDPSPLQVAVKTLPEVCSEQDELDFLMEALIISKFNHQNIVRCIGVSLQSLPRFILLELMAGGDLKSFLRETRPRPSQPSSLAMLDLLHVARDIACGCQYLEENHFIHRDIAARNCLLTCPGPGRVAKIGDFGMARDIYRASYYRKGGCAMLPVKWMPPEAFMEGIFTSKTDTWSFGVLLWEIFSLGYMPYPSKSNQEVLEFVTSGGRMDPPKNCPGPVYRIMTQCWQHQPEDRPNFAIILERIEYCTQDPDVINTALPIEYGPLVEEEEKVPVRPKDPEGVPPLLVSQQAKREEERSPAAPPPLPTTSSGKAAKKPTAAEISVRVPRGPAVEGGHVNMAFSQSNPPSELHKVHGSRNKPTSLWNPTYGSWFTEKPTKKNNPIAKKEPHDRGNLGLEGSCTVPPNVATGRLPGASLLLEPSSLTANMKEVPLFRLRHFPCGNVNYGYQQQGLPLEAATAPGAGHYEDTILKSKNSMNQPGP
# Sequence of Cyclin-dependent kinase 8 (P49336 whole entry): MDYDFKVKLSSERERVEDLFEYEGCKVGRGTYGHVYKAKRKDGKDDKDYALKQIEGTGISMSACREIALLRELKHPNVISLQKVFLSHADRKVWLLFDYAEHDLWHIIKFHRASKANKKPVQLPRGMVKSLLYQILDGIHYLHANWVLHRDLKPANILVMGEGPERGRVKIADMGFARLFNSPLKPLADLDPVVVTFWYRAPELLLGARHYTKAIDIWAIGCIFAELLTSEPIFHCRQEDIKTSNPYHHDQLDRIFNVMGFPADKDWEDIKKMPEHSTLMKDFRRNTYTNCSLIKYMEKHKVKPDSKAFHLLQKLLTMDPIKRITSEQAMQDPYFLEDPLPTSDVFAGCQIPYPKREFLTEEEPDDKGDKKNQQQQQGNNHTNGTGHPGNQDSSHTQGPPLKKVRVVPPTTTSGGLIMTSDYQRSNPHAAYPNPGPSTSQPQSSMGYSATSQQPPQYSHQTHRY
structure (smiles),measurement,setting,value
COc1cc(N(C)c2ccnc3ccc(C(F)(F)F)cc23)cc(OC)c1OC,% binding,[1],100%
same,% binding,[2],100%
Cc1ccc(-c2ccc3c(ccc4sc5c(c43)NC[C@@H](C)NC5=O)n2)cn1,% of inhibition,[3],1%
CN(C(=O)c1cnn2cccnc12)c1cc2c(cc1N1CCOCC1)C(=O)N(C[C@@H](F)C(C)(C)O)C2,dTM,[4],1 K
Nc1cnc(N2CCc3cc(S(=O)(=O)Nc4c(F)cc(Cl)cc4F)cc(N4CCCC4=O)c32)nc1 [TP-020n],% of control,[5],96%
O=C(NOC[C@H](O)CO)c1ccc(F)c(F)c1Nc1ccc(I)cc1F,% of control,[6],100%
CC(=O)Nc1cccc(-n2c(=O)n(C3CC3)c(=O)c3c(Nc4ccc(I)cc4F)n(C)c(=O)c(C)c32)c1,% of control,[7],86%
Cn1cc(-n2cnc3c(NCc4nc5cc(Cl)c(Cl)cc5[nH]4)nc(N4CCOCC4)nc32)cn1,% of inhibition,[8],-14.2%
CC[C@@H]1[C@H](F)C(=O)N[C@@H]1COc1nccc2cc(C(N)=O)c(OC)cc12 [ZIMLOVISERTIB],% of inhibition,[9]; at 0.01 µM,0.3%
same,% of inhibition,[9]; at 0.04 µM,0.4%
same,% of inhibition,[9]; at 0.2 µM,5%
same,% of inhibition,[9]; at 1 µM,5.6%
same,% of inhibition,[9]; at 5 µM,-4.9%
same,% of inhibition,[10],-16.8%
same,% of inhibition,[11],24.7%
O[C@H]1CC[C@H](Nc2ncc3nc(Nc4c(F)cc(F)cc4F)n([C@H]4CCOC4)c3n2)CC1,% of control,[12],100%
Cc1cnc(Nc2ccc(F)cc2Cl)nc1-c1c[nH]c(C(=O)N[C@H](CO)c2cccc(Cl)c2)c1,% of inhibition,Insulin receptor,4%

# From ChEMBL document CHEMBL5465560, “Selectivity Literature for EUbOPEN Chemogenomic Library” (2024)
